Assay results as given in patent US20100119997A1, “METHOD FOR PRODUCTION OF MESENCHYMAL CELL, METHOD FOR PRODUCTION OF TOOTH, AND MESENCHYMAL CELL FOR FORMATION OF TOOTH” (ORGAN TECHNOLOGIES INC., priority 2007, published 2010).

Legend:
AT805 cells (EC cells) [1] = test: Differentiation induction of EC cells by DMSO, CD44/CD29 double staining and cell sorter; format: cell-based, mouse; conditions: for CD44-positive and CD29-positive cells / Cell number: 14 h treatment
Description: As the EC cells, AT805 cells (a clone derived from OTT6050, EC cells of the strain129; obtained from the Cell Bank, RIKEN Bioresource Center) were used. Culturing of AT805 cells was performed using Dulbecco's modified Eagle's medium (DMEM; manufactured by SIGMA or Kohjin Bio Co. Ltd.) supplemented with 10% by volume fetal calf serum (FCS: manufactured by JRH, JBS or Hyclone) and 55 μM 2-mercaptoethanol (manufactured by GIBCO). EC cells were usually plated at a concentration of 5 to 8×10^5 cells per 100 mm dish, and complete replacement of the medium and passage culture were repeated every other day. In passage culture, the cells were washed once with HCMF buffer (pH7.4; 10 mM Hepes, 136.9 mM NaCl, 0.34 mM […], 13.9 mM glucose, 5.37 mM KCl), and 5 ml of an enzyme solution wherein trypsin-EDTA.2Na (manufactured by GIBCO) was dissolved at the final concentration of 0.025% was then added thereto, followed by an enzyme treatment at 37° C. for 1 minute. Subsequently, an equal amount of DMEM supplemented with 10% FCS was added to disperse the cells, and the cells were then precipitated and collected by centrifugation. The collected cells were resuspended and plated on a new culture dish to carry out passage culture.
EC cells collected by trypsin treatment were suspended in DMEM supplemented with 10% by volume FCS and dimethylsulfoxide (DMSO: manufactured by SIGMA) at the final concentration of 0.5 to 5% by volume, and plated at the concentration of 1.0×10^6 cells per 100 mm dish. Culture was carried out under 5% CO2 at 37° C., and after 14 hours, the cells were washed once with HCMF buffer, followed by replacement of the medium with DMEM supplemented with 10% by volume FCS.
EC cells treated with DMSO was continuously cultured for 6 days (19 days only in the case of 5% by volume DMSO) with replacement of a half amount of the medium every 3 days with DMEM supplemented with 10% by volume FCS, and observation was carried out as appropriate. When a cell population containing undifferentiated cells was grown, it washed once with HCMF buffer and then suspended by addition of Ca^2+/Mg^2+-free PBS(−)(EDTA/BSA-PBS) supplemented with 3 mM EDTA and 0.5% BSA, followed by centrifugation to collect cells as precipitates. The cells were resuspended in EDTA/BSA-PBS and then subjected to double staining with an FITC-labeled anti-CD44 antibody (CD44-FITC: manufactured by BD Pharmingen) and a PE-labeled anti-CD29 antibody (CD29-PE: manufactured by BD Pharmingen). A CD44-positive and CD29-positive cell fraction was isolated using a cell sorter, Epics ALTRA (manufactured by Beckman Coulter), to obtain an EC cell fraction wherein differentiation was induced by a DMSO treatment and undifferentiated EC cell were excluded (see FIG. 2). These cells were designated DMSO-EC cells.

AT805 cells (EC cells) [2] = test: Differentiation induction of EC cells by retinoic acid, CD44/CD29 double staining and cell sorter; format: cell-based, mouse; conditions: 72 h treatment, 7 culture days
Description: AT805 cells collected by a trypsin treatment in the same manner as in Example 1 were plated at a concentration of 1.0×10^6 cells per 100 mm dish, and, on the next day, the medium was replaced with DMEM supplemented with 10% by volume FCS, which was also added with retinoic acid (manufactured by SIGMA) at a final concentration of 0 to 10.0 μM, to stimulate the cells. After 72 hours of culture, the cells were washed twice with HCMF buffer, and the whole medium was replaced with DMEM supplemented with 10% by volume FCS only.
Culturing was continued for 7 days with replacement of a half amount of the medium every 3 days with DMEM supplemented with 10% by volume FCS, and observation was carried out as appropriate. A cell population grown after the RA treatment, which contains undifferentiated cells, was washed once with HCMF, and 3 mM EDTA-0.5% BSA-PBS(−) was added thereto, followed by incubation thereof at 37° C. After collecting cells, the cells were subjected to double staining with CD44 FITC (BD Pharmingen) and CD29 (BD Pharmingen) PE to separate and obtain CD44-positive and CD29-positive cells using Epics ALTRA (Beckman Coulter), and thus a cell population after exclusion of undifferentiated cells, which cell population is composed of only differentiated cells, was obtained. These cells were designated RA-EC cells.

[3] = DMSO 5.0 v/v %, 19 culture days

SMILES | Survival of EC cells immediately after treatment (AT805 cells (EC cells) [1]; 5% by volume DMSO) | CD44-positive and CD29-positive cells (AT805 cells (EC cells) [1]; DMSO 0.5 v/v %, 6 culture days) | Cell number (AT805 cells (EC cells) [1]; DMSO 0.5 v/v %, 6 culture days) | CD44-positive and CD29-positive cells (AT805 cells (EC cells) [1]; DMSO 1.0 v/v %, 6 culture days) | Cell number (AT805 cells (EC cells) [1]; DMSO 1.0 v/v %, 6 culture days) | CD44-positive and CD29-positive cells (AT805 cells (EC cells) [1]; DMSO 2.5 v/v %, 6 culture days) | Cell number (AT805 cells (EC cells) [1]; DMSO 2.5 v/v %, 6 culture days) | CD44-positive and CD29-positive cells (AT805 cells (EC cells) [1]; [3]) | Cell number (AT805 cells (EC cells) [1]; [3]) | CD44-positive and CD29-positive cells (AT805 cells (EC cells) [2]; RA 0.5 μM) | Cell number (AT805 cells (EC cells) [2]; RA 0.5 μM) | CD44-positive and CD29-positive cells (AT805 cells (EC cells) [2]; RA 1.0 μM) | Cell number (AT805 cells (EC cells) [2]; RA 1.0 μM) | CD44-positive and CD29-positive cells (AT805 cells (EC cells) [2]; RA 2.0 μM) | Cell number (AT805 cells (EC cells) [2]; RA 2.0 μM) | CD44-positive and CD29-positive cells (AT805 cells (EC cells) [2]; RA 5.0 μM) | Cell number (AT805 cells (EC cells) [2]; RA 5.0 μM) | CD44-positive and CD29-positive cells (AT805 cells (EC cells) [2]; RA 10.0 μM) | Cell number (AT805 cells (EC cells) [2]; RA 10.0 μM)
C[S+](C)[O-] [DMSO, dimethyl sulfoxide] | most cells died immediately after the treatment | 0.3% | 1.15 ×10^7 cells | 0.5% | 1.19 ×10^7 cells | 13.7% | 1.64 ×10^7 cells | 93.0% | 2.83 ×10^7 cells | – | – | – | – | – | – | – | – | – | –
CC1=C(/C=C/C(C)=C/C=C/C(C)=C/C(=O)O)C(C)(C)CCC1 [RA, retinoic acid] | – | – | – | – | – | – | – | – | – | 10.8% | 1.5 ×10^6 cells | 10.0% | 1.1 ×10^6 cells | 11.3% | 1.3 ×10^6 cells | 11.5% | 0.5 ×10^6 cells | 10.4% | 0.7 ×10^6 cells
